Results reported in a melting point compilation (Tetko et al.; mined from patent text by program, amines drawn as free bases though some values may be those of a salt).

Compound	melting point
Nc1ncc(-c2ccccc2)c(N)n1	162 to 164 °C
CCc1cc2c(Cl)cc(F)c(-n3c(=O)cc(C(F)(F)F)n(C)c3=O)c2o1	142 to 143 °C
CCCCCCCCCCCCCCCCCCOc1cc(C(=O)OC)cc(N(CC(=O)OCc2ccccc2)CC(=O)OCc2ccccc2)c1	62 to 63 °C
Cc1c(F)cccc1Cc1c(-c2ccccc2)c2cc(C=O)cnn2c1C(=O)N1CCN(C(=O)OC(C)(C)C)CC1	208 to 209 °C
COc1ncccc1C(=O)Nc1ccn2cc(-c3ccccc3)nc2n1	225 to 226 °C
CC(CNC(=O)Nc1ccc([N+](=O)[O-])cc1O)OCc1ccccc1 (stereo unspecified)	64.6 to 65.2 °C
CCOC(=O)C(Cc1ccccc1)=NO	54 to 55 °C
CCOC(=O)C1=C(C(=O)OCC)SCCS1	32 to 36 °C
CCn1ncc2c1ncc1c(=O)[nH]c3ncnn3c12	175 to 177 °C
O=S(=O)(Nc1cccc(CC2Cc3ccc(OCc4nc5cc(F)c(F)cc5s4)cc3C2O)c1)C(F)(F)F (stereo unspecified)	170 to 172 °C
O=C1NC(=O)C(S(=O)(=O)c2cccc3c(Br)cccc23)S1 (stereo unspecified)	189 to 190 °C
CN1CCC(=O)C(C(c2ccc(F)cc2)c2ccc(F)cc2)C1 (stereo unspecified)	127 to 129 °C
COc1cccc2c(C#Cc3ccccc3)c3cccc(OC)c3c(C#Cc3ccccc3)c12	178 to 180 °C
CCOC(=O)/C=C/c1cn(Cc2ccccc2)nc1OCc1ccccc1	88 to 89 °C
O=C(c1ccccc1)c1cc([N+](=O)[O-])ccc1NCc1ccccc1	120 °C
CNS(=O)(=O)c1ccc([N+](=O)[O-])cc1[N+](=O)[O-]	155 °C
Nc1cccc(-c2cc3[nH]c4ccc(O)cc4c3c3c2C(=O)NC3=O)c1	279 to 284 °C
O=S(=O)(NCCCCOc1ccc(-n2ccnc2)cc1)c1ccc(Br)cc1	134 to 136 °C
COc1ccc(C(=O)Nc2ccc(CCc3ccc(O)c(O)c3)cc2)c(O)c1	179 to 180 °C
CC(C)Oc1cccc(-n2c(=S)[nH]c3ccccc3c2=O)c1	288 to 290 °C
COc1ccc2[nH]cc(-c3cc4c(OC)ncnc4n3S(=O)(=O)c3ccc(C)cc3)c2c1	131 °C

Compound	melting point
CCCCc1nn(-c2cc(N)ccc2Cl)c(C(=O)OCC)c1Cc1ccc(-c2ccccc2S(=O)(=O)NC(=O)c2ccccc2Cl)cc1	> 75 °C
CNC(=S)Nc1ccccc1-c1ccccc1	152 to 153 °C
COc1cc(NC(=O)c2ccccc2Cl)ccc1C(=O)N1CCCC(OCCS(=O)(=O)c2ncc[nH]2)c2cc(Cl)ccc21 (stereo unspecified)	247 to 248 °C
O=c1[nH]c2ccc(CCN3CCN(c4cccc5cccnc45)CC3)cc2o1	200 °C
CS(=O)(=O)OCC(C#N)(c1ccc(Cl)cc1)c1ccccc1Cl (stereo unspecified)	124 to 127 °C
COc1ccc(Oc2ccc3ccccc3n2)cc1	96.5 to 98 °C
N#CC1CN1OCc1ccc(Cl)cc1 (stereo unspecified)	45 to 48 °C
CCC1(CCCCCl)C(=O)Nc2ccc(F)cc21 (stereo unspecified)	96 to 97 °C
CC(=O)N1C(SCc2ccccc2N(C)C)=NC(=O)C1(C)C	99 to 100 °C
NC(=O)N1C(=O)C(C(=O)c2ccco2)c2ncc(Cl)cc21 (stereo unspecified)	> 250 °C
Cc1cccc(C)c1CNc1cc(C(N)=O)cc2c1nc(C)n2C	272 °C
C#CCNC(=O)c1ccc(C(=O)OC)cc1	152 to 153 °C
Fc1cccc2sc(S)nc12	180 °C
Nc1ccc(C(=O)Nc2ccc(-c3c[nH]c(=O)cn3)cc2)cc1	> 300 °C
Cc1ccc(S(=O)(=O)OC(C)COc2c([N+](=O)[O-])ccc(F)c2F)cc1 (stereo unspecified)	67 to 69 °C
CNc1nc(Br)cc(S(=O)(=O)c2ccccc2)n1	142 to 143 °C
CN(C(=O)CCCCC1SCC2NC(=O)NC21)c1ccc(/C=C/c2c(F)cccc2F)cc1 (stereo unspecified)	91 to 93 °C
CC(C)Cn1nc(-c2ccc(F)c(F)c2)cc(COS(C)(=O)=O)c1=O	113 °C
Cc1nc(C)c2cc(-c3c(Cl)cccc3Cl)c(N)nc2n1	239 to 240 °C
Cc1nc(N2CCN(Cc3ccccc3)C2=N)sc1C(=O)NCc1ccc(F)cc1	142 to 144 °C

The remaining lines, values ahead:

melting point	Compound
> 240 °C	O=c1ccc(S(=O)(=O)c2oc3ccc(Cl)cc3c2O)n[nH]1
245 to 246 °C	Cc1ccc(Sc2c(O)c3ccc(Cl)cc3[nH]c2=O)cc1
103 to 112 °C	COc1cc(C2CCN(CC(N)=O)CC2)ccc1Nc1ncc2ccc(-c3ccccc3N(C)S(C)(=O)=O)n2n1
104 to 108 °C	COc1ccc2c(c1)CCC1C2CCC2(C)C(=O)CC(C(C)C)C12 (stereo unspecified)
225 to 226 °C	Cc1ccc(-c2ccc3cc(C(=O)Nc4ccc(CN(C)C5CCOCC5)cc4)n(C)c3c2)cc1
242 to 243 °C	CCCCCCCCCC(=O)Nc1ccc(S(=O)(=O)Nc2nnc(S(N)(=O)=O)s2)cc1
95 to 100 °C	Cc1ccc(CC(=O)c2sccc2S(=O)(=O)Nc2onc(C)c2C)cc1
143 °C	O=C(NC1CCCC1)c1ccc(S(=O)(=O)Cl)cc1
115 °C	COCCOc1cc(N(C)S(=O)(=O)c2ccccn2)c2[nH]c(C3=NCC(CN4CCS(=O)(=O)CC4)S3)cc2c1 (stereo unspecified)
98 to 100 °C	Cc1oc(-c2cccc(-c3nc(CC(=O)OCc4ccccc4)c(C)o3)c2)nc1CC(=O)OCc1ccccc1
109 to 111 °C	CCCCCCCNC(=O)Nc1ccccc1C(=O)NCCCC1CCN(C(c2ccccc2)c2ccccc2)C1 (stereo unspecified)
134 to 136 °C	CCOC(=O)c1cc(OC)ccc1Nc1ccc(O)cc1
151 to 152 °C	NC(=O)N1CC(Oc2cccc(C(F)(F)F)c2)C1
148 to 150 °C	COC(=S)OCC(COC(=S)OC)OCn1cnc2c(=O)[nH]c(N)nc21
256 to 257 °C	Oc1ccc2c(-c3cc(F)ccc3F)noc2c1Cl
116 to 118 °C	O=C(CCCl)c1cc2ccccc2o1
171 to 176 °C	CC(O)=C(C#N)C(=O)Nc1ccc(OC(F)(F)F)cc1
195 to 198 °C	CC(COc1ccc(-n2cncn2)cc1)(NS(=O)(=O)Cc1ccccc1)C(N)=O (stereo unspecified)
165 °C	COc1ccc(-c2cncc(OC3SCC(O)C(O)C3O)c2)cc1Cl (stereo unspecified)
125 to 130 °C	CC(=O)OC1CC(C)(C)N(OC(=NC2CCCCC2)N(C(C)=O)C2CCCCC2)C(C)(C)C1
96 to 98 °C	Brc1cn2ccsc2n1
103 to 105 °C	CC(C)N1CCCN=C1SC1=C(O)CC(c2ccccc2)OC1=O (stereo unspecified)
150 °C	O=C1CCC(C2CCCCC2)CC1C(=S)Nc1ccccc1 (stereo unspecified)
143 to 146 °C	CCCCCCCCCCCCCCCCCCOc1cc(O)cc(N(CC(=O)O)CC(=O)O)c1
152 to 153 °C	Clc1ccc2c(c1)N=C(NCc1cccnc1)c1ccccc1S2
234 to 237 °C	Fc1cc(F)c2c(Nc3c(Cl)ccc4c3OCO4)ncnc2c1
82 °C	OC(CSC(=S)Nc1ccccn1)c1ccccc1 (stereo unspecified)
198 to 201 °C	C[C@]1(COc2ccc(N3CCN(Cc4ccc(N5CCC(Oc6ccc(OC(F)(F)F)cc6)CC5)cc4)CC3)cc2)Cn2cc([N+](=O)[O-])nc2O1

melting point	Compound
87 to 89 °C	COC(=O)COc1ccc(O)c(C(C)(C)C)c1
186 to 188 °C	CCc1nc(OC)c(NC(=O)N2CCN(c3cccc(F)c3)CC2)cc1C(=O)Nc1cc(CO)cc(Nc2c3ccccc3nc3ccccc23)c1
245 to 249 °C	CC(C)(C)c1ccc(C(=O)Nc2ccc([N+](=O)[O-])cc2C(=O)O)cc1
176 to 178 °C	CCc1c(-c2cc(C)c(O)c(C)c2)[nH]c2ccc(OC)cc12
155 °C	O=S(CCCCOc1ccc(C2=C(c3ccccc3)CCCc3cc(O)ccc32)cc1)CCCC(F)(F)C(F)(F)F (stereo unspecified)
46 to 48 °C	CCOC(=O)[C@H]1[C@@H]2CC(=O)[C@@](N=[N+]=[N-])(C(=O)OCc3ccccc3)[C@@H]21
173 to 175 °C	CCOc1ccc(-c2ccc3c(c2)C=C(C(=O)OC)CCS3(=O)=O)cc1
138 °C	CC1(C)c2cc(C#N)ccc2OC1OC(=O)CCl (stereo unspecified)
82 to 84 °C	COc1ccccc1OCC1SCCN1C(=O)CBr (stereo unspecified)
136 to 139 °C	CS(=O)(=O)NCc1ccc([N+](=O)[O-])cc1
207 to 210 °C	O=C(Nc1ccc(NCCCO)nc1)c1cc2cc(C(F)(F)F)cnc2n1Cc1cccc(F)c1
112 to 114 °C	CC(C)(NCC(F)(F)CN)C(CCn1ccnc1[N+](=O)[O-])=NO
100 to 103 °C	CN(C)N=C1CCC2C3CCc4cc(O[Si](C)(C)C(C)(C)C)ccc4C3CCC12C (stereo unspecified)
130 °C	Cc1cc(C(C)(CC(=O)O)c2ccc(O)c(C)c2)ccc1O
219 to 221 °C	Cc1cc(Br)cnc1CCCCNC1=NS(=O)(=O)c2cc(S(N)(=O)=O)ccc21
> 275 °C	CCCn1c(=O)c2[nH]c(/C=C/c3ccc4c(c3)OCCO4)nc2n(CCC)c1=O
175 °C	Cc1cc(-c2cscn2)ccc1-c1cc(C(F)(F)F)nn1-c1ccc(S(C)(=O)=O)cc1
102 to 103 °C	CCCCC1NC(C(=O)OC)Cc2c1[nH]c1ccccc21 (stereo unspecified)
82.5 to 84.2 °C	CCSC(=O)Cc1cc(Oc2ccc(C(F)(F)F)cc2Cl)ccc1[N+](=O)[O-]
153 to 154 °C	Cc1cc(C)nc(N(C#N)c2ccccc2)n1
169 to 176 °C	CNC(=O)CN1CCc2ccc(Nc3ncc(Cl)c(Nc4ccc(N5CCOCC5)cc4OC)n3)cc2CC1
237 to 238 °C	CS(=O)(=O)N[C@@H](CCCCN)C(=O)NC[C@H](CC1(C(=O)N[C@@H](Cc2ccc(O)cc2)C(=O)O)CCCC1)C(=O)O
28 to 30 °C	Cc1cc(C)c2c(c1O)C(=O)C(C)(C)C2
151 °C	CCOC(=O)c1nc2n(c(=O)c1OCc1ccccc1)CCCC2
125 to 126 °C	CCCOC(=O)c1cn(C2CC2)c2nc(N3CCC(N)C3)c(F)cc2c1=O (stereo unspecified)
75 to 89 °C	CN1CCN(c2cc(Cl)cc3c2c(=O)n(Cc2cccc4ccccc24)c(=O)n3Cc2ccccc2)CC1
123 to 124 °C	OC(COc1ccc(-c2ccc(I)cc2)cc1)CN1CCCC1 (stereo unspecified)
